Active and inactive are the calls of the source.
How the values were obtained:
[1] = target: Potassium channel subfamily K member 3 (Homo sapiens, UniProt O14649); assay: TASK1 (KCNK3) potassium channel inhibitors, SAR follow-up, CHO cells, FluxOR thallium flux (AID 652212); assay type: functional
[2] = target: Potassium channel subfamily K member 9 (Homo sapiens, UniProt Q9NPC2); assay: TASK3 (KCNK9) channel inhibitors, thallium flux, SAR follow-up, selectivity assay for TASK1 inhibitor project, cell-based, FluxOR thallium flux, concentration-response (AID 652211); assay type: functional;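 also: potency is for inhibitors of the channel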
[3] = cytotoxicity toward NIH3T3 fibroblasts, dose response, counter-screen, cell-based, ATP luminescence, mouse fibroblasts (AID 2010); assay type: functional;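 also: cells exposed to compound for about 90 hours before reading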
[4] = inhibitors of intracellular T. cruzi replication, confirmation, NIH3T3 host cells, beta-gal luminescence (AID 2044); assay type: functional, cell-based;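 also: intracellular parasites grown in NIH/3T3 mouse fibroblasts as host cells; luminescent beta-galactosidase reporter signal from transgenic T. cruzi replicating inside host cells; inhibitors lower the luminescence signal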
[5] = cells
[6] = target: T1, Protein skinhead-1 (Caenorhabditis elegans, UniProt P34707); assay type: functional
T1 sequence (P34707 whole entry): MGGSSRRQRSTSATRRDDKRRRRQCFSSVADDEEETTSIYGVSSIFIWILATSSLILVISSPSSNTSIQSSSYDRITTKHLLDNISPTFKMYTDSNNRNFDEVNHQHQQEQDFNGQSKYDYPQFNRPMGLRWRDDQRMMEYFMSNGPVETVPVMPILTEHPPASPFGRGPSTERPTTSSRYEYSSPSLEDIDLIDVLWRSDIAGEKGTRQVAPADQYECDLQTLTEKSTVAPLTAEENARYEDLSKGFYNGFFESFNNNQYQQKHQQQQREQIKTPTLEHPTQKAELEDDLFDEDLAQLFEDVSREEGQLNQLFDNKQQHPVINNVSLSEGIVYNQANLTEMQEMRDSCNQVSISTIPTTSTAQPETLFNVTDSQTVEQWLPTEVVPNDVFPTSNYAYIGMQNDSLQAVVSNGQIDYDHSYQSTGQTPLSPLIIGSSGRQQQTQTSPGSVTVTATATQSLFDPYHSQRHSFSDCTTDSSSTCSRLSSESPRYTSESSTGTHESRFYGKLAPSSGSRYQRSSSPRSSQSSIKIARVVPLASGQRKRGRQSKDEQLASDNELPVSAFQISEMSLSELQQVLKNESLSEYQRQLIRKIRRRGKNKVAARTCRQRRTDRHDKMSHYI

[7] = target: Prothrombin (Homo sapiens, UniProt P00734); assay: Thrombin 1536 HTS Dose Response Confirmation. [Related pubchem assays: 1046 (Thrombin 1536 HTS; hits were confirmed in this assay)]; assay type: functional
[8] = half-maximal inhibitory concentration for glucagon-like peptide-1 release, STC-1 cell line, dose-response (AID 1117345); assay type: functional, cell-based
[9] = Glucagon-like peptide 1 release potency, NCI-H716 cell line, dose-response, half-maximal inhibitory concentration (AID 1117344); assay type: functional, cell-based
[10] = target: Heat shock protein HSP 90-alpha (Homo sapiens, UniProt P07900); assay: Luminescence-based dose response biochemical high throughput screening assay for inhibitors of the Heat Shock Protein 90 (HSP90). [Related pubchem assays: 1831 (Summary AID.), 1846 (Confirmation screen.), 1789 (Primary screen.)]
[11] = target: T2, Acyl-homoserine lactone acylase PvdQ (Pseudomonas aeruginosa (strain LESB58), UniProt Q9I194); assay: P. aeruginosa PvdQ acylase inhibitors, dose response, biochemical, fluorescence, plate reader and imaging, cherry-picks (AID 493231)
T2 sequence (Q9I194 whole entry): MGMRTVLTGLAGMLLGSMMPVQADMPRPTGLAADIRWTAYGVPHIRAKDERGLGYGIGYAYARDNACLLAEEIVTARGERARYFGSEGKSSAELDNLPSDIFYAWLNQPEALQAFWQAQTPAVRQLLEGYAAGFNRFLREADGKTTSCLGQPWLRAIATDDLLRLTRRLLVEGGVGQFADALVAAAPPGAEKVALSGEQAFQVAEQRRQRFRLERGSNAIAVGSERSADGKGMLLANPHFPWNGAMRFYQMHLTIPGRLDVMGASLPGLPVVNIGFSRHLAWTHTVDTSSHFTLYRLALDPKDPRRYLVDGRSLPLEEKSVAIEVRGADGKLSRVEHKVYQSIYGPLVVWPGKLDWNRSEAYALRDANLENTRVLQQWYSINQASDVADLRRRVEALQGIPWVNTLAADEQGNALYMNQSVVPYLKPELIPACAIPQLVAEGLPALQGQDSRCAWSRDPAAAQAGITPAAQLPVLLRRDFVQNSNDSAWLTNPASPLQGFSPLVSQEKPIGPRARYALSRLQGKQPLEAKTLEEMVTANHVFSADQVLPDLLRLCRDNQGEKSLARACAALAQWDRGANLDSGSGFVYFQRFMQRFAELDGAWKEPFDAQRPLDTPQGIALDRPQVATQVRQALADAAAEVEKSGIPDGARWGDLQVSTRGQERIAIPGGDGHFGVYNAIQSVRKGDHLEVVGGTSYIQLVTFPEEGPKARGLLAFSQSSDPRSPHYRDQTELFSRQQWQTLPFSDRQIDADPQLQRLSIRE

[12] = target: T3, Zinc finger protein mex-5 (Caenorhabditis elegans, UniProt Q9XUB2); assay: MEX-5/TCR-2 RNA interaction inhibitors, dose response, biochemical, C. elegans, fluorescence polarization (AID 1960)
T3 sequence (Q9XUB2 whole entry): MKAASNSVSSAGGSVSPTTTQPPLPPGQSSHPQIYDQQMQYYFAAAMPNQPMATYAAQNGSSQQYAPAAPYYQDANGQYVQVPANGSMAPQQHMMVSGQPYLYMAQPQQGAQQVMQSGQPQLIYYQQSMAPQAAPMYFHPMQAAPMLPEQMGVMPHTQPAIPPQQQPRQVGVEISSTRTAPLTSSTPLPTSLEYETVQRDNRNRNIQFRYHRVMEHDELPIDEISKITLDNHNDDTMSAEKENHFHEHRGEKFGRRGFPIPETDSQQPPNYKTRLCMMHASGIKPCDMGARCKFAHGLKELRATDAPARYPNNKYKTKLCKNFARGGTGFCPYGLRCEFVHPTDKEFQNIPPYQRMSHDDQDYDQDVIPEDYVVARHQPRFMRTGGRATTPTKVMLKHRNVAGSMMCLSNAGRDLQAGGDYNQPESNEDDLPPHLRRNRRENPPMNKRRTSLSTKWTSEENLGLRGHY

[13] = target: T4, RNA-binding protein pos-1 (Caenorhabditis elegans, UniProt G5EF15); assay: inhibitors of POS-1/mex-3 RNA binding, dose response, biochemical, fluorescence polarization (AID 1964);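 also: purified POS-1 fused to maltose binding protein made in E. coli; potency of compounds blocking POS-1 binding to fluorescent RNA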
T4 sequence (G5EF15 whole entry): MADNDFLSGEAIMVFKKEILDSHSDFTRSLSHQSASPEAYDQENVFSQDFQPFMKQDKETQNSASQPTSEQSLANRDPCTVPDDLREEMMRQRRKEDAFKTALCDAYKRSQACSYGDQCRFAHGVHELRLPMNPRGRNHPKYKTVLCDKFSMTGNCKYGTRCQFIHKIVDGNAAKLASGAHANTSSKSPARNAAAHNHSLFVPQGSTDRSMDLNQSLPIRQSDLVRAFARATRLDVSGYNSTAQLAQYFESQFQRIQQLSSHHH

[14] = HEK293 Cytotoxicity Assay Measured in Cell-Based System Using Plate Reader - 7071-01_Inhibitor_Dose_CherryPick_Activity_Set2.; assay type: functional
[15] = tested on: HEK293; assay: HEK293T cell cytotoxicity, dose response, cytotoxicity control, ATP luminescence, cherry-pick samples (AID 687005); assay type: functional, cell-based; conditions: Homo sapiens;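 also: cells exposed to compound for 48 hours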
[16] = target: COUP transcription factor 2 (Homo sapiens, UniProt P24468); assay: Luminescence-based cell-based high throughput dose response assay to identify inhibitors of COUP-TFII (NR2F2).; assay type: functional;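 also: HEK293 cells transiently cotransfected with COUP-TFII expression vector and reporter; luciferase reporter luminescence driven by COUP-TFII from the pX2-168 reporter plasmid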
[17] = ZM109 Env clade C HIV-1 fusion inhibitors, dose response, HeLa effector, CEM target cells, luciferase, cherry-pick (AID 652058); assay type: functional, cell-based
[18] = off-target signal loss in HeLa-CEM21 co-culture – HeLa F-luc CTL cells, cherry-picked, counter-screen for HIV-1 Env fusion inhibitor project, dose response (AID 652040); assay type: functional, cell-based;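 also: potency for signal decrease marking cytotoxic or nonspecific inhibition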
[19] = inhibitors of HIV Env-driven cell fusion, dose response, cherry-pick (AID 652057); assay type: functional, cell-based
[20] = CEM21 lymphoblast cell cytotoxicity, dose response, cytotoxicity control for viral fusion inhibitor project, CellTiter-Glo luminescence, cherry-picked (AID 652042); assay type: functional, cell-based;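 also: potency for signal decrease meaning cytotoxicity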
[21] = inhibitors of clade B AD8 Env fusion, dose response, cell-based, cherry-pick (AID 652062); assay type: functional;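 also: luciferase signal from cell-cell fusion driven by HIV-1 clade B AD8 Env; potency is for inhibitors of fusion seen as a drop in luminescence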
[22] = inhibitors of firefly luciferase expression or activity, dose response, H4 neuroglioma cells, luminescence (AID 1990); assay type: functional, cell-based
[23] = inhibitors of SNCA 5'UTR-driven reporter translation, confirmation, H4 neuroglioma cells, luminescence (AID 1988); assay type: functional, cell-based
[24] = Luminescence Cell-Based Dose Response HTS to Identify Inhibitors of 5'UTR Stem-Loop Driven Prion Protein mRNA Translation in H4 Neuroglioblastoma Cells. [Related pubchem assays: 1827 (Project Summary), 1813 (Primary HTS)]; assay type: functional
[25] = target: Transthyretin (Homo sapiens, UniProt P02766); assay: Luminescence-based cell-based high throughput dose response assay to identify activators of Transthyretin (TTR) transcription.; assay type: functional
[26] = target: Paired box protein Pax-8 (Homo sapiens, UniProt Q06710); assay: inhibitors of PAX8-driven TPO luciferase reporter, dose response, RMG-I cells, cherry-pick (AID 687027); assay type: functional, cell-based;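 also: luciferase reporter driven by Pax8 target thyroperoxidase promoter measured by SteadyGlo luminescence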
[27] = NIH:OVCAR-3 ovarian cancer cell cytotoxicity, dose response, PAX8 inhibitor project, plate reader, dry powder samples (AID 743044); assay type: functional, cell-based
[28] = cytotoxicity in OVCAR8 ovarian cancer cells, dose response, PAX8 project, cell-based, plate reader, dry powder samples (AID 743197); assay type: functional; conditions: OVCAR-8
[29] = target: Kallikrein-7 (Homo sapiens, UniProt P49862); assay: Fluorescence Intensity-based biochemical primary high throughput dose response assay to identify activators of kallikrein-7 (K7) zymogen.
[30] = target: Cytochrome P450 2C19 (Homo sapiens, UniProt P33261); assay: qHTS Assay for Inhibitors and Substrates of Cytochrome P450 2C19. [Related pubchem assays: 410 ]; assay type: ADME; conditions: read-out: Potency
[31] = target: Cytochrome P450 3A4 (Homo sapiens, UniProt P08684); conditions: Potency;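 also: confirmatory qHTS run detecting inhibitors and substrates of CYP3A4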
[32] = target: Cytochrome P450 2C9 (Homo sapiens, UniProt P11712); conditions: Potency
[33] = inhibitors of PGC1a acetylation in cells, dose response, cell-based, cherry-picked samples (AID 720514); assay type: functional;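 also: potency may reflect raised or lowered acetylation signal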

Sequence of Cytochrome P450 2C19 (P33261 whole entry): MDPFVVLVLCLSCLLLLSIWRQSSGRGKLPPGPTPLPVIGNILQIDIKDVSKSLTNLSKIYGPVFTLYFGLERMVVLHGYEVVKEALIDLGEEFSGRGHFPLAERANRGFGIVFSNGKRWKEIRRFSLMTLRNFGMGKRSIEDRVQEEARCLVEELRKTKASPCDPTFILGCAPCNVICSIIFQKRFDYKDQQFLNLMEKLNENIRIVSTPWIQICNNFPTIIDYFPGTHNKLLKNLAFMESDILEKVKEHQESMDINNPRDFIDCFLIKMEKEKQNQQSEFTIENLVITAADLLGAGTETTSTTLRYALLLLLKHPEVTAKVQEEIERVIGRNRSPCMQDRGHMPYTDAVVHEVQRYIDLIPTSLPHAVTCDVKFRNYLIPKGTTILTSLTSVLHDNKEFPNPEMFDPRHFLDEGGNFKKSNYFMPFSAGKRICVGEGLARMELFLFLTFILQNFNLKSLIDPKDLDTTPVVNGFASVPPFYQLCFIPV
Sequence of COUP transcription factor 2 (P24468 whole entry, the tested form may be a part): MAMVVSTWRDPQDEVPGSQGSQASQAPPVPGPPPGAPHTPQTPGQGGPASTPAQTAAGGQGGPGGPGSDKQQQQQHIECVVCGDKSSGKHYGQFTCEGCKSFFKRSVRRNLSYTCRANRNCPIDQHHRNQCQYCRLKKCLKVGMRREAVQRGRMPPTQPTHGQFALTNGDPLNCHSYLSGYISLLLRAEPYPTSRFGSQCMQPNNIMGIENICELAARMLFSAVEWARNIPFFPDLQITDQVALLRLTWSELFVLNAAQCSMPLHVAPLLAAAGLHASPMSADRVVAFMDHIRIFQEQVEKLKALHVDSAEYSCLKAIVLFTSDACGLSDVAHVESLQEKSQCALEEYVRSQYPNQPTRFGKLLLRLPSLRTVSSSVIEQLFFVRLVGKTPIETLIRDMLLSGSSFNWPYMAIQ
Sequence of Potassium channel subfamily K member 9 (Q9NPC2 whole entry): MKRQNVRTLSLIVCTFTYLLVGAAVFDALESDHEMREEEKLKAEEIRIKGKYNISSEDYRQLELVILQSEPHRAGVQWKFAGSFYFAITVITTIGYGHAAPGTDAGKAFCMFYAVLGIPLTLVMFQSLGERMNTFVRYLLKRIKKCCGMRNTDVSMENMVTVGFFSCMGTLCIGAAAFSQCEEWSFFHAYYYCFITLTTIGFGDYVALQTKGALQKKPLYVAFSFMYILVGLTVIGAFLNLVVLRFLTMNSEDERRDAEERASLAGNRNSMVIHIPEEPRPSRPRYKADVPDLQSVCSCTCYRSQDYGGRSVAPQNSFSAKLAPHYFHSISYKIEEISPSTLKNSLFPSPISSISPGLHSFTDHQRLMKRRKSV
Sequence of Potassium channel subfamily K member 3 (O14649 whole entry): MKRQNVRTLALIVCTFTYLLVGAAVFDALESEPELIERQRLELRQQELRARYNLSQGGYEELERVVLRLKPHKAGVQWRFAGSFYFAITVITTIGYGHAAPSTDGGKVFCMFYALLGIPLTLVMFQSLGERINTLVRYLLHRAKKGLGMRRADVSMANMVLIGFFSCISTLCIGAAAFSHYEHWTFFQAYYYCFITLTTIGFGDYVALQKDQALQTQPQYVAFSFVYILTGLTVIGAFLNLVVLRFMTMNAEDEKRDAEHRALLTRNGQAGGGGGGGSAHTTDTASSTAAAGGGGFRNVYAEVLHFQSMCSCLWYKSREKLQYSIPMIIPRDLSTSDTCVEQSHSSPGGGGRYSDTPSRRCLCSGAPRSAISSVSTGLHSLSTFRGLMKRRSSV
Sequence of Cytochrome P450 3A4 (P08684 whole entry): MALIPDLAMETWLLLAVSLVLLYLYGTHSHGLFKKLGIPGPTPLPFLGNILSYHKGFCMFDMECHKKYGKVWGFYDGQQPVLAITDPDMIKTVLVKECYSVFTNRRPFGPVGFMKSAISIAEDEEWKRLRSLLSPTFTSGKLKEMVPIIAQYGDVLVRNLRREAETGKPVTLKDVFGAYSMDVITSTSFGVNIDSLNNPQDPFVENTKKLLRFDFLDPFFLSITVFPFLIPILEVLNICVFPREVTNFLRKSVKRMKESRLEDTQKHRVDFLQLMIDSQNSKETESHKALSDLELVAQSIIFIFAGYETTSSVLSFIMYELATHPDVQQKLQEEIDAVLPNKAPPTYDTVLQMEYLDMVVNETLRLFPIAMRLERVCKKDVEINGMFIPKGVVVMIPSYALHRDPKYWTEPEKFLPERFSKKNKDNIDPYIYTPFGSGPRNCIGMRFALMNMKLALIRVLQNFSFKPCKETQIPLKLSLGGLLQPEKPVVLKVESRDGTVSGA
Sequence of Cytochrome P450 2C9 (P11712 whole entry): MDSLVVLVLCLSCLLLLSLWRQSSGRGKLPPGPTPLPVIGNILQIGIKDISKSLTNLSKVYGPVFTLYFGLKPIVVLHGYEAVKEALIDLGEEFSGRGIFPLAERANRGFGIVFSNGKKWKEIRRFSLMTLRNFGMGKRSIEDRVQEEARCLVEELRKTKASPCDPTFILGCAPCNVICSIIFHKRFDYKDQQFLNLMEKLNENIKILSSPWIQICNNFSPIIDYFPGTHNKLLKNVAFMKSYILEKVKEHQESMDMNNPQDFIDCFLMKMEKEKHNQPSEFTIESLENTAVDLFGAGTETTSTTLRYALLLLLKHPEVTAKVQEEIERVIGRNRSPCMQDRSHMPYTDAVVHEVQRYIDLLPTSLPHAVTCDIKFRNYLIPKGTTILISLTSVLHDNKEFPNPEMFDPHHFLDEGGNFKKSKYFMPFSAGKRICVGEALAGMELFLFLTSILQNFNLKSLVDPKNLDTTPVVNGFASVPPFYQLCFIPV
Sequence of Paired box protein Pax-8 (Q06710 whole entry): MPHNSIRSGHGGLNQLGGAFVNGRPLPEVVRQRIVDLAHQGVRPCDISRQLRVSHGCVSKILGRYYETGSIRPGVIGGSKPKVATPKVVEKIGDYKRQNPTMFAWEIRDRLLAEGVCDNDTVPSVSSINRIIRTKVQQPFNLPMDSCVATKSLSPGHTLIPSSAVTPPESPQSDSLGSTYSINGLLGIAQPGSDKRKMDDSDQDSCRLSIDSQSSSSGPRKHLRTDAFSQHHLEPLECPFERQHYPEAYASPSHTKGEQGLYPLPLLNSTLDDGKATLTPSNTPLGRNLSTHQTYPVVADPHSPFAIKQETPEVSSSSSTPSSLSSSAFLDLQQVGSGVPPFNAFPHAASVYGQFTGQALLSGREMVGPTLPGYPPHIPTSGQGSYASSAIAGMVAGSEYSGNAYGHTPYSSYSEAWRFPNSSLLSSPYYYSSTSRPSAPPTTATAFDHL
Sequence of Kallikrein-7 (P49862 whole entry): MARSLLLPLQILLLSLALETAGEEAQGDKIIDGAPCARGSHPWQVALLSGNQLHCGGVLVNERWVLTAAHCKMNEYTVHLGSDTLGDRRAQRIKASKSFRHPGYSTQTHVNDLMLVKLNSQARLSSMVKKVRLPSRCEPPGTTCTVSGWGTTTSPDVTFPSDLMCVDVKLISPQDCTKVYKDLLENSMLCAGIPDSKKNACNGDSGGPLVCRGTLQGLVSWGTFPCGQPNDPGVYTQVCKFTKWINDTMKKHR

COc1ccccc1C(=O)Nc1cc(NC(=O)c2cccc(C)c2)ccc1F
IC50 [1]: 159 nM (active) | IC50 [2]: 6.31 µM (active)

CCOc1ccc(CNCCc2ccc3c(c2)OCO3)cc1
EC50 [3]: > 60 µM (not active) | EC50 [4]: < 100 nM (active) | EC50 [5]: 496 nM (active)

CC(C)OCCCn1c(=S)[nH]c2cc3c(cc2c1=O)OCO3
IC50 [6]: > 100 µM (inactive) | IC50 [7]: > 50 µM (not active)

Cc1c(C)n(CCN(C)C)c2ccc(C(=O)OCCN(C)C)cc12 [AMINDOCATE]
IC50 [8]: 1.2 µM (active) | IC50 [9]: > 40 µM (inactive)

CCOC(=O)c1ccc(-c2ccc(C=O)o2)cc1
IC50 [10]: 10.3 µM (not active) | AC50 [11]: 9.42 µM (active) | EC50 [12]: > 300 µM (not active) | EC50 [13]: 43.6 µM (active)

CC(NC(=O)COc1ccccc1-c1ccccc1)c1ccccc1 (configuration not stated)
AC50 [14]: 35.9 µM (active) | AC50 [15]: 35.9 µM (active)

Cc1cccc(Nc2nc(-c3c(C)nc4ccccn34)cs2)c1
IC50 [16]: 8.41 µM (active) | AC50 [17]: 7.64 µM (active) | AC50 [18]: 2.7 µM (active) | AC50 [19]: 6.19 µM (active) | AC50 [20]: 29.6 µM (active) | AC50 [21]: 7.63 µM (active)

Cc1ccc(CNC(=O)CCC2CCCN(Cc3c(C)nn(C(C)C)c3C)C2)o1 (configuration not stated)
EC50 [3]: > 60 µM (not active) | EC50 [4]: < 100 nM (active) | EC50 [5]: 11 nM (active)

COc1ccc(-c2cn3c(C)c(C(=O)Nc4cccc(C)n4)sc3n2)cc1
IC50 [10]: 0.327 µM (active)

Cc1ccc(CNC(=O)Cc2ccc(-c3ccccc3)cc2)cc1
EC50 [22]: > 120 µM (not active) | EC50 [23]: 6.89 µM (active) | EC50 [24]: 10.4 µM (active) | EC50 [25]: > 167 µM (inactive)

O=c1[nH]sc2cc(Cl)ccc12 [TICLATONE]
IC50 [8]: > 40 µM (inactive) | IC50 [9]: > 40 µM (inactive)

C[C@@H]1CN([C@H](C)CO)C(=O)c2cc(NC(=O)CCC(F)(F)F)ccc2O[C@@H](C)CCCCO[C@@H]1CN(C)Cc1ccc(C(F)(F)F)cc1
AC50 [26]: 8.65 µM (active) | AC50 [27]: 26.5 µM (active) | AC50 [28]: 45.3 µM (active)

O=C(c1cccs1)C1CCN(c2ncnc3sccc23)CC1
IC50 [16]: 4.18 µM (active)

CC(=O)N1c2ccccc2N2C(c3c(C)c(C)cc(C)c3C)=NON12
IC50 [7]: 3.37 µM (active)

COc1ccccc1C1C=C(c2ccccc2)Nc2nnnn21 (configuration not stated)
EC50 [29]: 12.1 µM (inactive)

Cc1ccccc1Cn1cc(COC(=O)N(C)Cc2ccccc2)nn1
EC50 [25]: > 167 µM (inactive)

COC(=O)C/C=C/C(C)C(OCc1cccc(Br)c1)C(C)C(OC)C1CCCCC1 (configuration not stated)
AC50 [30]: 5.01 µM (inconclusive) | AC50 [31]: 3.98 µM (inconclusive)

Cc1ccc(/C=C/C2=CC3(C)CC2(C)C(c2ccc(C)cc2)CC3=O)cc1 (configuration not stated)
AC50 [32]: 3.98 µM (inconclusive) | AC50 [30]: 0.631 µM (inconclusive)

N#Cc1ccc(-c2ccc([C@@H]3[C@H]4CNC[C@@H]3N4Cc3ccc4c(c3)OCO4)cc2)cc1
AC50 [33]: 16.9 µM (active)

CCOc1ccccc1NC(=O)c1cccc(NC(=O)c2ccccc2OC)c1
IC50 [1]: 7 nM (active) | IC50 [2]: 1.18 µM (active)

O=C(C[C@H]1CC[C@H]2[C@@H](COC[C@H](O)CN2Cc2cccc(Cl)c2)O1)Nc1nccs1
AC50 [14]: 16.7 µM (active) | AC50 [15]: 16.7 µM (active)

Source: ChEMBL document CHEMBL1201862, “PubChem BioAssay data set” (2004)
